In US20130121994A1, “TRIAZOLOPYRIDINE DERIVATIVES” (BAYER INTELLECTUAL PROPERTY GMBH, priority 2009, published 2013) one finds IC50 data, which are given here for 30 compounds.

The structures appear in SMILES notation.

The test concerns the target T1, human kinase Mps-1 (Homo sapiens, UniProt P33981).
T1 construct: N-terminally GST-tagged human full length recombinant Mps-1 kinase; GST (N); purchased Invitrogen, Karslruhe, Germany PV4071
T1 sequence (P33981 1-857): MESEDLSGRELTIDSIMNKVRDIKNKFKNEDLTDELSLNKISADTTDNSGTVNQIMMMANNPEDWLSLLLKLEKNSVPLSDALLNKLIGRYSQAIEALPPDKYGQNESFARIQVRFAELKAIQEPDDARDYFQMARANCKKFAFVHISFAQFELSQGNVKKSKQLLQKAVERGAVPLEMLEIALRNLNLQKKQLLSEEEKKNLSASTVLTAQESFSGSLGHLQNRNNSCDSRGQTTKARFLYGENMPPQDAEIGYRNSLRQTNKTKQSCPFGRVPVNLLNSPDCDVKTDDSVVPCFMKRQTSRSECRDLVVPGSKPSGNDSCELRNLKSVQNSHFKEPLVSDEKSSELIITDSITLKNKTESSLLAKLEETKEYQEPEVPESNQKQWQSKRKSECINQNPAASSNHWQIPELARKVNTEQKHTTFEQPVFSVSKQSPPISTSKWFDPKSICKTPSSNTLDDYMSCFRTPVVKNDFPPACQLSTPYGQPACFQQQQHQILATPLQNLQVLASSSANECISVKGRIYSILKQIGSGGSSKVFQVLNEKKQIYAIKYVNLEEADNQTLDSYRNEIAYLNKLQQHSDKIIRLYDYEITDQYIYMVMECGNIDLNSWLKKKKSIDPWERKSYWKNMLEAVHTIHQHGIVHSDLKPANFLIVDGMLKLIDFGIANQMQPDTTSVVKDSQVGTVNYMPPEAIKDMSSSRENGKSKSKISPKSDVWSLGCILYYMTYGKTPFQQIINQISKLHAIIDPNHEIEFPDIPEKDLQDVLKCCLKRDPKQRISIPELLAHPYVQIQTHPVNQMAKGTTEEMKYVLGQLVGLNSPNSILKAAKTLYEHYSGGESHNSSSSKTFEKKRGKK
Description: Mps-1 kinase assay (HTRF). The class given is biochemical. As for the experimental part: The human kinase Mps-1 phosphorylates a biotinylated substrate peptide. Detection of the phosphorylated product is achieved by homogenous time-resolved fluorescence resonance energy transfer (HTRF) from Europium-labelled anti-phospho-Serine/Threonine antibody as donor to streptavidin labelled with cross-linked allophycocyanin (SA-XLent) as acceptor. Compounds are tested for their inhibition of the kinase activity.
N-terminally GST-tagged human full length recombinant Mps-1 kinase (purchased from Invitrogen, Karslruhe, Germany, cat. no PV4071) was used. As substrate for the kinase reaction a biotinylated peptide of the amino-acid sequence […] (C-terminus in amide form, purchased from Biosynthan GmbH, Berlin) was used.
The concentration of Mps-1 in the assay was adjusted to the activity of the enzyme lot and was chosen appropriate to have the assay in the linear range, typical enzyme concentrations were in the range of about 1 nM (final conc. in the 5 μl assay volume).
The resulting mixture was incubated 1 h at 22° C. to allow the binding of the phosphorylated peptide to the anti-phospho(Ser/Thr)-Europium-antibody. Subsequently the amount of phosphorylated substrate was evaluated by measurement of the resonance energy transfer from the Europium-labelled anti-phospho(Ser/Thr) antibody to the Streptavidin-XLent.
(In general: TR-FRET usually uses a lanthanide donor and a delayed reading to cut background.)

`COC(C)CNC(=O)c1cccc(-c2ccc3nc(Nc4ccccc4C#N)nn3c2)c1` (racemic) [Example 11.053, rac-3-{2-[(2-cyanophenyl)amino][1,2,4]triazolo[1,5-a]pyridin-6-yl}-N-(2-methoxypropyl)benzamide]: half-maximal inhibition (IC50) required 0.00672 µM.
As for `COc1cc(C#N)ccc1Nc1nc2ccc(-c3cc(C)c(O)c(C)c3)cn2n1` [Example 1.1, 4-{[6-(4-hydroxy-3,5-dimethylphenyl)[1,2,4]triazolo[1,5-a]pyridin-2-yl]amino}-3-methoxybenzonitrile], the figure is 0.017 µM.
`COc1ccc(Nc2nc3ccc(-c4cc(C)c(O)c(C)c4)cn3n2)c(OC)c1` [Example 1.2, 4-{2-[(2,4-dimethoxyphenyl)amino] [1,2,4]triazolo[1,5-a]pyridin-6-yl}-2,6-dimethylphenol]: 0.18 µM corresponded to half-maximal inhibition (IC50).
The result for `Cc1cc(-c2ccc3nc(Nc4cncnc4)nn3c2)cc(C)c1O` [Example 1.4, 2,6-dimethyl-4-[2-(pyrimidin-5-ylamino)[1,2,4]triazolo [1,5-a]pyridin-6-yl]phenol] reads 2.7 µM.
Regarding `COc1ccc(F)cc1Nc1nc2ccc(-c3cc(C)c(O)c(C)c3)cn2n1` [Example 1.6, 4-{2-[(5-fluoro-2-methoxyphenyl)amino] [1,2,4]triazolo[1,5-a]pyridin-6-yl}-2,6-dimethylphenol], the IC50 (as a rule, the point on the concentration scale where inhibition reaches its midpoint) was 0.15 µM.
The result for `Cc1cc(-c2ccc3nc(Nc4cccnc4)nn3c2)cc(C)c1O` [Example 1.8, 2,6-dimethyl-4-[2-(pyridin-3-ylamino)[1,2,4]triazolo [1,5-a]pyridin-6-yl]phenol] reads 0.32 µM; that for `Cc1cc(-c2ccc3nc(Nc4ccccc4OC(F)(F)F)nn3c2)cc(C)c1O` [Example 1.10, 2,6-dimethyl-4-(2-{[2-(trifluoromethoxy)phenyl]amino}[1,2,4]tri-azolo[1,5-a]pyridin-6-yl)phenol], 0.14 µM.
Regarding `CCOc1ccccc1Nc1nc2ccc(-c3cc(C)c(O)c(C)c3)cn2n1` [Example 1.12, 4-{2-[(2-ethoxyphenyl)amino] [1,2,4]triazolo[1,5-a]pyridin-6-yl}-2,6-dimethylphenol], half-maximal inhibition (IC50) was put at 0.092 µM.
The result for `COc1ccc(C#N)cc1Nc1nc2ccc(-c3cc(C)c(O)c(C)c3)cn2n1` [Example 1.13, 3-{[6-(4-hydroxy-3,5-dimethylphenyl)[1,2,4]triazolo[1,5-a]pyridin-2-yl]amino}-4-methoxybenzonitrile] reads 0.64 µM; that for `COc1cccnc1Nc1nc2ccc(-c3cc(C)c(O)c(C)c3)cn2n1` [Example 1.14, 4-{2-[(3-methoxypyridin-2-yl)amino][1,2,4]tri-azolo[1,5-a]pyridin-6-yl}-2,6-dimethylphenol], 0.16 µM; that for `CNC(=O)c1ccc(Nc2nc3ccc(-c4cc(C)c(O)c(C)c4)cn3n2)cc1` [Example 1.15, 4-{[6-(4-hydroxy-3,5-dimethylphenyl)[1,2,4]triazolo[1,5-a]pyridin-2-yl]amino}-N-methylbenzamide], 0.023 µM.
The result for `CCN(CC)C(=O)c1ccc(Nc2nc3ccc(-c4cc(C)c(O)c(C)c4)cn3n2)c(OC)c1` [Example 1.16, N,N-Diethyl-4-[6-(4-hydroxy-3,5-dimethyl-phenyl)-[1,2,4]triazolo[1,5-a]pyridin-2-ylamino]-3-methoxy-benzamide] reads 0.28 µM; that for `COc1ccc(F)cc1Nc1nc2ccc(-c3cccc(NC(C)=O)c3)cn2n1` [Example 2.2, N-(3-{2-[(5-fluoro-2-methoxyphenyl)amino] [1,2,4]triazolo[1,5-a]pyridin-6-yl}phenyl)acetamide], 0.47 µM; that for `CC(=O)Nc1cccc(-c2ccc3nc(Nc4cccnc4)nn3c2)c1` [Example 2.4, N-{3-[2-(pyridin-3-ylamino)[1,2,4]triazolo [1,5-a]pyridin-6-yl]phenyl}acetamide], 3.1 µM.
The result for `CC(=O)Nc1cccc(-c2ccc3nc(Nc4ccc(S(C)(=O)=O)cc4)nn3c2)c1` [Example 2.5, N-[3-(2-{[4-(methylsulfonyl)phen-yl]amino}[1,2,4]triazolo [1,5-a]pyridin-6-yl)phenyl]acetamide] reads 0.77 µM; that for `CC(=O)Nc1cccc(-c2ccc3nc(Nc4ccccc4OC(F)(F)F)nn3c2)c1` [Example 2.6, N-[3-(2-{[2-(trifluoromethoxy)phenyl]amino}[1,2,4]tri-azolo[1,5-a]pyridin-6-yl)phenyl]acetamide], 0.34 µM.
`CC(=O)Nc1cccc(-c2ccc3nc(Nc4ccc(OC(F)(F)F)cc4)nn3c2)c1` [Example 2.7, N-[3-(2-{[4-(trifluoromethoxy)phenyl]amino}[1,2,4]tri-azolo[1,5-a]pyridin-6-yl)phenyl]acetamide]: the midpoint of inhibition, the IC50, lay at 3.3 µM.
As for `CC(=O)Nc1cccc(-c2ccc3nc(Nc4ccc(C#N)cc4)nn3c2)c1` [Example 2.8, N-(3-{2-[(4-cyanophenyl)amino] [1,2,4]triazolo[1,5-a]pyridin-6-yl}phenyl)acetamide], the figure is 1 µM; as for `CC(=O)Nc1cccc(-c2ccc3nc(Nc4ccc(C(C)C)cc4)nn3c2)c1` [Example 2.9, N-[3-(2-{[4-(propan-2-yl)phenyl]amino}[1,2,4]triazolo[1,5-a]pyridin-6-yl)phenyl]acetamide], 1.8 µM; as for `CCOc1ccccc1Nc1nc2ccc(-c3cccc(NC(C)=O)c3)cn2n1` [Example 2.10, N-(3-{2-[(2-ethoxyphenyl)amino] [1,2,4]triazolo[1,5-a]pyridin-6-yl}phenyl)acetamide], 0.13 µM.
The result for `COc1cccnc1Nc1nc2ccc(-c3cccc(NC(C)=O)c3)cn2n1` [Example 2.11, N-(3-{2-[(3-methoxypyridin-2-yl)amino][1,2,4]triazolo [1,5-a]pyridin-6-yl}phenyl)acetamide] reads 3.5 µM.
`COc1cc(C#N)ccc1Nc1nc2ccc(-c3cccc(NC(C)=O)c3)cn2n1` [Example 2.12, N-(3-{2-[(4-cyano-2-methoxyphenyl)amino] [1,2,4]triazolo[1,5-a]pyridin-6-yl}phenyl)acetamide] had an IC50 of 0.2 µM.
As for `N#Cc1ccccc1Nc1nc2ccc(-c3ccccc3)cn2n1` [Example 3.1, 2-[(6-phenyl[1,2,4]triazolo[1,5-a]pyridin-2-yl)amino]benzonitrile], the figure is 0.86 µM; as for `N#Cc1ccccc1Nc1nc2ccc(-c3cccc(CO)c3)cn2n1` [Example 3.2, 2-({6-[3-(hydroxymethyl)phen-yl][1,2,4]triazolo[1,5-a]pyridin-2-yl}amino)benzonitrile], 0.052 µM; as for `Cc1cccc(-c2ccc3nc(Nc4ccccc4C#N)nn3c2)c1` [Example 3.3, 2-{[6-(3-methylphenyl)[1,2,4]triazolo[1,5-a]pyridin-2-yl]amino}benzonitrile], 0.63 µM.
The result for `CC(=O)Nc1ccccc1-c1ccc2nc(Nc3ccccc3C#N)nn2c1` [Example 3.4, N-(2-{2-[(2-cyanophenyl)amino] [1,2,4]triazolo[1,5-a]pyridin-6-yl}phenyl)acetamide] reads 6.1 µM.
The result for `CS(=O)(=O)Nc1cccc(-c2ccc3nc(Nc4ccccc4C#N)nn3c2)c1` [Example 3.5, N-(3-{2-[(2-cyanophenyl)amino] [1,2,4]triazolo[1,5-a]pyridin-6-yl}phenyl)methane-sulfonamide] reads 0.24 µM; that for `N#Cc1ccccc1Nc1nc2ccc(-c3ccc4cc[nH]c4c3)cn2n1` [Example 3.6, 2-{[6-(1H-indol-6-yl)[1,2,4]triazolo[1,5-a]pyridin-2-yl]amino}benzonitrile], 0.94 µM.
`N#Cc1ccccc1Nc1nc2ccc(-c3ccc(C(N)=O)cc3)cn2n1` [Example 3.7, 4-{2-[(2-cyanophenyl)amino] [1,2,4]triazolo[1,5-a]pyridin-6-yl}benzamide] gave an IC50 of 0.14 µM.
As for `N#Cc1ccccc1Nc1nc2ccc(-c3cccc(C(N)=O)c3)cn2n1` [Example 3.8, 3-{2-[(2-cyanophenyl)amino] [1,2,4]triazolo[1,5-a]pyridin-6-yl}benzamide], half-maximal inhibition (IC50) was put at 0.11 µM.
